# Measured values from patent publication US6451761B1, “N′N′-dichlorinated omega-amino acids and uses thereof” (Queen's University at Kingston, priority 1999, dated 2002).
# Like-named read-outs stand apart in the source and are kept apart here.
# Experiments:
# [1] = Stability on storage and in water or solvents (TLC and NMR monitoring); type: physicochemical
# Method: Taurine (1.5 g) was suspended in a mixture of methanol (50 mL) and 4 M aqueous hydrochloric acid (25 mL). To this was added in small aliquots 4-6% aqueous sodium hypochlorite (40 mL) with stirring. The taurine dissolved with evolution of gentle heat. After 2 h the solution was concentrated (below 30° C.) to a small volume. Ethanol (200 mL) was added and the precipitated sodium chloride was removed by filtration. This procedure was repeated until no more precipitate formed. After concentration to a small volume of oily residue, 50/50 methanol-ethyl acetate (100 mL) was added, and the mixture was again filtered to remove residual sodium chloride. Upon reconcentration, the residue was treated with 0.04 M aqueous hydrochloric acid in acetone (25 mL). Slow concentration yielded white, iridescent plates, (0.7 g). […] Detection was by spraying with 2% KI-starch (yellow-brown) followed by ethanolic ninhydrin (faintly pink); M.P. 148° C. UV (λmax) 310 nm (ε1.851×10^2, 95% ethanol); ^1Hmr (D2O) 3.05-3.2(2H, m) and 3.95-4.05(2H, m); MS (es−): 191.9(18.76%), 193.8 (13.41%), 195.8(2.83%).
# (§1) The chlorinaton and desalting methodology was essentially similar to that for taurine. […] Final isolation was from 50/50 (^v/v) diethylether-methanol plus dichloromethane, followed by slow evaporation at approximately 0-4° C. M.P. 197° C.; UV: λmax 308 (ε1.486×10^2, 95% ethanol); ^1Hmr (D2O) δ: 2.05-2.15 (2H, m, αCH2), 2.95-3.05 (2H, m, βCH2), 3.9-4.0 (2H, m, γCH2); MS (es−): 205.9(1.4%), 207.9(0.88%), 210.0(0.31%).
# N,N-dichloro-GABA: UV: λmax 308 nm (ε2.974×10^2, 95% ethanol); ^1Hmr (CDCl3) δ: 1.95-2.05 (2H, m,αCH2), 2.4-2.5 (2H, m, βCH2), 3.6-3.75 (2H, m, γCH2). Decomposition in water was about 50% in 3 h at room temperature (TLC monitored). […]
# The procedure for the synthesis of N′N′-dichloro-leucine was identical to that for the dichloroGABA. The product is a pale-yellow oil. When stored in dichloromethane, at −10° C.; the compound readily decomposed with an approximate half-life of 1 h.
# From the above Examples it is apparent that dichlorination of ω-amino acids yields products which vary considerably in their stability. […] The most important precaution required for stable storage is the removal of all traces of water. […] A yield of between 30-60% was obtained, which can be improved by more efficiently exploiting the fact that primary amines are far less soluble than their chlorinated products in non-polar solvents. Those of ordinary skill in the art will recognize that the methods for isolation of the chlorinated amino acids described here can be extended to other α-carboxyl amino acids, as well as peptides and proteins.
# mice = settings: for behaviour following injection: mice (20 g), 200 mg/Kg
# Method: Two other mice (20 g) received dichlorotaurine (0.1 mL=100 mg/Kg) s.c. at 60 min intervals for three hours.
# [2] = Solubility in nonpolar solvents; type: physicochemical; settings: compared with taurine homologue
# Method: as §1
# [3] = tested on: rat brain amino acid profile; assay: Effect on rat brain amino acid profile; type: in vivo, Sprague-Dawley rats; settings: for % change GABA / % change GLUTAMATE / % change RATIO GLU/TAU / % change RATIO GLY/GLU / % change TAURINE: dichlorotaurine vs taurine (control); for GABA tissue content / GLUTAMATE tissue content / TAURINE tissue content: 10-30 min prior to sacrifice; for GABA tissue content / GLUTAMATE tissue content / TAURINE tissue content / RATIO GLU/TAU / RATIO GLY/GLU: average of three rats
# Method: Three Sprague-Dawley rats were each injected with taurine (200 mg/kg) (control), and another three Sprague-Dawley rats were each administered dichlorotaurine (200 mg/kg): one at 10 min (i.p.), one at 20 min (i.p.) and one at 30 min (i.v.) prior to sacrifice. The animals were anesthetized with ether and then sacrificied by cardiac perfusion with phosphate buffered saline for 5 min, before the brains were removed at room temp.
# Brain regions were dissected by hand on a glass cold plate (4-6° C.). The samples were homogenized in 9× weight by volume of water, then perchloric acid was added to a final concentration of 0.6 M to precipitate proteins. Samples (20 μL) were neutralized with 15 μL 2M KHCO3. The extracts were centrifuged and supernatants were diluted with water 1:100. Amino acid analysis was performed by derivatization with o-phthaldialdehyde followed by liquid chromatography (Varian LC 5000 and Schoeffel FS 970 fluorometer). […] Identification and quantification by peak height was calibrated against a standard amino acid solution.
# Data are shown in Table1, below, where each taurine (control) value and dichlorotaurine value is the average of the three respective rats. The amino acid values represent endogenous neural tissue content and not extracellular (release) concentrations. The most pronounced effects of the dichlorotaurine are on the cortex-hippocampus. The data are interpreted as directed towards reduced (↓) excitability. Moreover, the data provide evidence that administration of dichlorotaurine attenuates the pathological consequences of excessive glutamate release, which is known to occur under clinical conditions such as, for example, epilepsy, intractable pain disorders, Huntington's Disease, Parkinson's Disease, and abnormalities associated with CNS trauma (e.g., stroke, spinal cord injury, impact trauma).
# [4] = mice, 100 mg/Kg s.c. at 60 min intervals for three hours
# [5] = frontal cortex, rats, 200 mg/kg
smiles,measurement,setting,value
"O=C(O)CCCN(Cl)Cl [N,N-dichloro-GABA, N,N-dichloro-γ-aminobutyric Acid]",relative stability when in contact with water,[1],the least stable
same,Decomposition in water,"[1]; 3 h at room temperature, TLC monitored",about 50%
"O=C(O)CCN(Cl)Cl [N,N-dichloro-β-alanine, N′N′-dichloro-β-alanine]",relative stability in water or 95% ethanol,[1],"More stable than N,N-dichloro-GABA"
"CC(C)C[C@@H](C(=O)O)N(Cl)Cl [N′N′-dichloro-leucine, N,N-dichloro-L-leucine, reference compound]",relative stability when in contact with water,[1]; in contact with water,the least stable
same,half-life,"[1]; stored in dichloromethane at −10° C., read-out: half-life of decomposition (converted)",~1 h
"O=S(=O)(O)CCCN(Cl)Cl [dichlorohomotaurine, N,N-dichlorohomotaurine]",behaviour following injection,mice,almost indistinguishable from that observed with the taurine homologue
same,solubility in nonpolar solvents,[2],more soluble in nonpolar solvents
same,hygroscopicity,[1],Fairly hygroscopic
same,stability in a humid atmosphere,"[1]; humid atmosphere, compared with taurine homologue",more unstable than its taurine homologue
same,half-life,"[1]; in water, read-out: t1/2 of decomposition to homotaurine (converted)",24 h
same,melting point,,197 °C
"O=S(=O)(O)CCN(Cl)Cl [dichlorotaurine, N′N′-dichlorotaurine]","onset of severe ataxia, laboured breathing and grooming behaviour towards the site of injection","mice; male mice (20 g), 200 mg/Kg i.p.",≤ 5 min
same,behaviour following injection,mice,"very quiet, showed strongly reduced responsiveness to environmental stimuli, and reduced mobility"
same,Onset of sedation following the first injection,mice; [4],5 min
same,effect of the two subsequent injections on behaviour,mice; [4],did not aggravate nor modify the tranquil behaviour
same,time after last injection to start of return to normal behaviour,mice; [4],Two to three hours
same,Observation for the next 24 h,"mice; mouse, in vivo, sc, 100 mg/kg",did not reveal any abnormalities
same,interpretation,[3]; GABA changes,↓ excitability
same,interpretation,[3]; GLUTAMATE changes,↓ excitability
same,interpretation,[3]; RATIO GLU/TAU changes,↓ excitability
same,interpretation,[3]; RATIO GLY/GLU changes,↓ excitability
same,interpretation,[3]; TAURINE changes,↓ excitability
same,% change GABA,[3]; brain stem,— (±15% considered non-significant: no change)
same,% change GLUTAMATE,[3]; brain stem,— (±15% considered non-significant: no change)
same,% change RATIO GLU/TAU,[3]; brain stem,−33%
same,% change RATIO GLY/GLU,[3]; brain stem,+19%
same,% change TAURINE,[3]; brain stem,—* (±15% considered non-significant: no change)
same,GABA tissue content,"[3]; brain stem, rats, 200 mg/kg",2.32 nmoles/mg wet weight
same,GLUTAMATE tissue content,"[3]; brain stem, rats, 200 mg/kg",7.19 nmoles/mg wet weight
same,TAURINE tissue content,"[3]; brain stem, rats, 200 mg/kg",2.63 nmoles/mg wet weight
same,RATIO GLU/TAU,"[3]; brain stem, rats, 200 mg/kg",2.50
same,RATIO GLY/GLU,"[3]; brain stem, rats, 200 mg/kg",1.55
same,% change GABA,[3]; cerebellum,— (±15% considered non-significant: no change)
same,% change GLUTAMATE,[3]; cerebellum,— (±15% considered non-significant: no change)
same,% change RATIO GLU/TAU,[3]; cerebellum,— (±15% considered non-significant: no change)
same,% change RATIO GLY/GLU,[3]; cerebellum,— (±15% considered non-significant: no change)
same,% change TAURINE,[3]; cerebellum,— (±15% considered non-significant: no change)
same,GABA tissue content,"[3]; cerebellum, rats, 200 mg/kg",1.97 nmoles/mg wet weight
same,GLUTAMATE tissue content,"[3]; cerebellum, rats, 200 mg/kg",10.29 nmoles/mg wet weight
same,TAURINE tissue content,"[3]; cerebellum, rats, 200 mg/kg",5.36 nmoles/mg wet weight
same,RATIO GLU/TAU,"[3]; cerebellum, rats, 200 mg/kg",2.01
same,RATIO GLY/GLU,"[3]; cerebellum, rats, 200 mg/kg",0.46
same,% change GABA,[3]; frontal cortex,+29%
same,% change GLUTAMATE,[3]; frontal cortex,−20%
same,% change RATIO GLU/TAU,[3]; frontal cortex,−33%
same,% change RATIO GLY/GLU,[3]; frontal cortex,+42%
same,% change TAURINE,[3]; frontal cortex,+30%
same,GABA tissue content,[3]; [5],2.93 nmoles/mg wet weight
same,GLUTAMATE tissue content,[3]; [5],11.90 nmoles/mg wet weight
same,TAURINE tissue content,[3]; [5],10.00 nmoles/mg wet weight
same,RATIO GLU/TAU,[3]; [5],1.32
same,RATIO GLY/GLU,[3]; [5],0.40
same,% change GABA,[3]; hippocampus,+32%
same,% change GLUTAMATE,[3]; hippocampus,— (±15% considered non-significant: no change)
same,% change RATIO GLU/TAU,[3]; hippocampus,−24%
same,% change RATIO GLY/GLU,[3]; hippocampus,+20%
same,% change TAURINE,[3]; hippocampus,+52%
same,GABA tissue content,"[3]; hippocampus, rats, 200 mg/kg",3.73 nmoles/mg wet weight
same,GLUTAMATE tissue content,"[3]; hippocampus, rats, 200 mg/kg",15.76 nmoles/mg wet weight
same,TAURINE tissue content,"[3]; hippocampus, rats, 200 mg/kg",11.22 nmoles/mg wet weight
same,RATIO GLU/TAU,"[3]; hippocampus, rats, 200 mg/kg",1.45
same,RATIO GLY/GLU,"[3]; hippocampus, rats, 200 mg/kg",0.43
same,brain region of the most pronounced effects,"[3]; rats, 200 mg/kg",cortex-hippocampus
same,relative stability when in contact with water,[1],the most
same,stability when dry,[1],reasonably stable for up to a month
same,storage stability,[1],stable for at least one month without appreciable decomposition
same,decomposition in 95% ethanol,"[1]; 95% ethanol, over 48 h",little or no decomposition
same,stable in water,"[1]; water, ambient temperature, TLC and NMR monitoring",at least 3 h
"NCCS(=O)(=O)O [taurine, reference compound]",behaviour following injection,mice,normal behaviour
same,GABA tissue content,"[3]; brain stem, rats, 200 mg/kg",2.25 nmoles/mg wet weight
same,GLUTAMATE tissue content,"[3]; brain stem, rats, 200 mg/kg",8.20 nmoles/mg wet weight
same,TAURINE tissue content,"[3]; brain stem, rats, 200 mg/kg",2.29 nmoles/mg wet weight
same,RATIO GLU/TAU,"[3]; brain stem, rats, 200 mg/kg",3.73
same,RATIO GLY/GLU,"[3]; brain stem, rats, 200 mg/kg",1.30
same,GABA tissue content,"[3]; cerebellum, rats, 200 mg/kg",2.25 nmoles/mg wet weight
same,GLUTAMATE tissue content,"[3]; cerebellum, rats, 200 mg/kg",11.32 nmoles/mg wet weight
same,TAURINE tissue content,"[3]; cerebellum, rats, 200 mg/kg",5.38 nmoles/mg wet weight
same,RATIO GLU/TAU,"[3]; cerebellum, rats, 200 mg/kg",2.15
same,RATIO GLY/GLU,"[3]; cerebellum, rats, 200 mg/kg",0.48
same,GABA tissue content,[3]; [5],2.28 nmoles/mg wet weight
same,GLUTAMATE tissue content,[3]; [5],15.04 nmoles/mg wet weight
same,TAURINE tissue content,[3]; [5],7.67 nmoles/mg wet weight
same,RATIO GLU/TAU,[3]; [5],1.98
same,RATIO GLY/GLU,[3]; [5],0.28
same,GABA tissue content,"[3]; hippocampus, rats, 200 mg/kg",2.83 nmoles/mg wet weight
same,GLUTAMATE tissue content,"[3]; hippocampus, rats, 200 mg/kg",13.82 nmoles/mg wet weight
same,TAURINE tissue content,"[3]; hippocampus, rats, 200 mg/kg",7.38 nmoles/mg wet weight
same,RATIO GLU/TAU,"[3]; hippocampus, rats, 200 mg/kg",1.91
same,RATIO GLY/GLU,"[3]; hippocampus, rats, 200 mg/kg",0.36
